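GI50 = concentration required for 50% inhibition of growth. TGI: total growth inhibition.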
Columns and labels:
Assay in all cases: DTP human tumour cell line panel, 384-well format
K-562 leukemia = tested on: K-562 leukemia
786-0 renal = tested on: 786-0 renal
NCI-H23 lung = tested on: NCI-H23 lung
HL-60(TB) leukemia = tested on: HL-60(TB) leukemia
HOP-92 NSCLC = tested on: HOP-92 NSCLC
RPMI-8226 leukemia = tested on: RPMI-8226 leukemia
SNB-19 CNS = tested on: SNB-19 CNS
SF-539 CNS = tested on: SF-539 CNS
OVCAR-4 ovarian = tested on: OVCAR-4 ovarian
T-47D breast = tested on: T-47D breast
MOLT-4 leukemia = tested on: MOLT-4 leukemia
NCI-H226 lung = tested on: NCI-H226 lung
M14 melanoma = tested on: M14 melanoma
SK-MEL-28 melanoma = tested on: SK-MEL-28 melanoma
OVCAR-5 ovarian = tested on: OVCAR-5 ovarian
OVCAR-3 ovarian = tested on: OVCAR-3 ovarian
SF-295 CNS = tested on: SF-295 CNS
SNB-75 CNS = tested on: SNB-75 CNS
ACHN renal = tested on: ACHN renal
UACC-62 melanoma = tested on: UACC-62 melanoma
SK-OV-3 ovarian = tested on: SK-OV-3 ovarian
SK-MEL-2 melanoma = tested on: SK-MEL-2 melanoma
UO-31 renal = tested on: UO-31 renal
BT-549 breast = tested on: BT-549 breast
HCT-116 colon = tested on: HCT-116 colon
SW-620 colon = tested on: SW-620 colon
CAKI-1 renal = tested on: CAKI-1 renal
U251 glioblastoma = tested on: U251 glioblastoma
NCI/ADR-RES ovarian = tested on: NCI/ADR-RES ovarian
IGROV1 ovarian = tested on: IGROV1 ovarian
OVCAR-8 ovarian = tested on: OVCAR-8 ovarian
MDA-MB-468 breast = tested on: MDA-MB-468 breast
CCRF-CEM leukemia = tested on: CCRF-CEM leukemia
SF-268 CNS = tested on: SF-268 CNS
A549 NSCLC = tested on: A549 NSCLC
KM12 colon = tested on: KM12 colon
LOX IMVI melanoma = tested on: LOX IMVI melanoma
NCI-H522 lung = tested on: NCI-H522 lung
PC-3 prostate = tested on: PC-3 prostate
RXF 393 renal = tested on: RXF 393 renal
HT29 colon = tested on: HT29 colon
HCT-15 colon = tested on: HCT-15 colon
MALME-3M melanoma = tested on: MALME-3M melanoma
DU-145 prostate = tested on: DU-145 prostate
SN12C renal = tested on: SN12C renal
MCF7 breast = tested on: MCF7 breast
HOP-62 NSCLC = tested on: HOP-62 NSCLC

## N[C@@H](Cc1ccc(N(CCCl)CCCl)cc1)C(=O)O
K-562 leukemia
  GI50: 27.8 µM
786-0 renal
  GI50: 28.9 µM
NCI-H23 lung
  GI50: 17.8 µM
  TGI: 60.5 µM
HL-60(TB) leukemia
  GI50: 1.34 µM
  TGI: 2.78 µM
HOP-92 NSCLC
  GI50: 28.2 µM
RPMI-8226 leukemia
  GI50: 7.95 µM
  TGI: 22.6 µM
SNB-19 CNS
  GI50: 48.1 µM
SF-539 CNS
  GI50: 15.4 µM
  TGI: 58.5 µM
OVCAR-4 ovarian
  GI50: 40.7 µM
T-47D breast
  GI50: 41 µM
MOLT-4 leukemia
  GI50: 1.01 µM
  TGI: 2.2 µM
NCI-H226 lung
  GI50: 87.8 µM
M14 melanoma
  GI50: 20.8 µM
SK-MEL-28 melanoma
  GI50: 89.7 µM
OVCAR-5 ovarian
  GI50: 34.2 µM
OVCAR-3 ovarian
  GI50: 26 µM
SF-295 CNS
  GI50: 19.2 µM
  TGI: 43.1 µM
SNB-75 CNS
  GI50: 20.9 µM
ACHN renal
  GI50: 19 µM
  TGI: 43.7 µM
UACC-62 melanoma
  GI50: 15.2 µM
SK-OV-3 ovarian
  GI50: 20.5 µM
  TGI: 96.2 µM
SK-MEL-2 melanoma
  GI50: 63.1 µM
UO-31 renal
  GI50: 52 µM
BT-549 breast
  GI50: 16.9 µM
  TGI: 82.1 µM
HCT-116 colon
  GI50: 23.8 µM
SW-620 colon
  GI50: 26.8 µM
CAKI-1 renal
  GI50: 13.2 µM
U251 glioblastoma
  GI50: 16.1 µM
NCI/ADR-RES ovarian
  GI50: 55.3 µM
IGROV1 ovarian
  GI50: 85.1 µM
OVCAR-8 ovarian
  GI50: 11.8 µM
MDA-MB-468 breast
  GI50: 4.53 µM
  TGI: 18.7 µM
CCRF-CEM leukemia
  GI50: 2.38 µM
  TGI: 4.41 µM
SF-268 CNS
  GI50: 7.04 µM
  TGI: 44.9 µM
A549 NSCLC
  GI50: 26.9 µM
KM12 colon
  GI50: 70.3 µM
LOX IMVI melanoma
  GI50: 23.1 µM
NCI-H522 lung
  GI50: 14.4 µM
  TGI: 28.1 µM
PC-3 prostate
  GI50: 80.2 µM
RXF 393 renal
  GI50: 17.3 µM
  TGI: 33.3 µM
HT29 colon
  GI50: 47 µM
HCT-15 colon
  GI50: 11.1 µM
MALME-3M melanoma
  GI50: 14 µM
  TGI: 30.7 µM
DU-145 prostate
  GI50: 28.5 µM
  TGI: 90 µM
SN12C renal
  GI50: 8.12 µM
MCF7 breast
  GI50: 9.86 µM
HOP-62 NSCLC
  GI50: 11.7 µM
  TGI: 40.1 µM

Reference: PubChem BioAssay (NCI)
